{"source": "ChEMBL document CHEMBL3044789", "about": "“Comparing weed and crop seedling response to pre-emergence pendimethalin application in Corchorus olitorius and Abelmoschus esculentus” (Crop Prot, 2006)", "key": {"[1]": {"tested_on": "Calopogonium mucunoides", "test": "Herbicidal activity against Calopogonium mucunoides in Corchorus olitorius plots assessed as weed cover at 0.33 kg a.i/ha after 4 weeks (reference value: 20.1+/- 0.57 %)", "assay_type": "functional"}, "[2]": {"tested_on": "Abelmoschus esculentus", "test": "Phytotoxicity in Abelmoschus esculentus assessed as crop seedling injury at 1.32 kg a.i/ha after 2 weeks relative to untreated control", "assay_type": "organism-based", "conditions": "in vivo, 336 h"}, "[3]": {"tested_on": "Synedrella nodiflora", "test": "Herbicidal activity against Synedrella nodiflora in Abelmoschus esculentus plots assessed as weed cover at 1.32 kg a.i/ha after 7 weeks (reference value: 14.7 +/- 0.46 %)", "assay_type": "functional"}, "[4]": {"tested_on": "Synedrella nodiflora", "test": "Herbicidal activity against Synedrella nodiflora in Corchorus olitorius plots assessed as weed cover at 0.99 kg a.i/ha after 2 weeks (reference value: 81.7 +/- 0.43 %)", "assay_type": "functional"}, "[5]": {"tested_on": "Abelmoschus esculentus", "test": "Phytotoxicity in Abelmoschus esculentus assessed as shoot length at 0.33 kg a.i/ha treated to soil after 7 weeks (reference value: 8.5 +/- 0.34 mm)", "assay_type": "organism-based", "conditions": "in vivo, other, 1176 h"}, "[6]": {"tested_on": "Chromolaena odorata", "test": "Herbicidal activity against Chromolaena odorata in Corchorus olitorius plots assessed as weed cover at 1.32 kg a.i/ha after 7 weeks (reference value: 1.7 +/- 0.56 %)", "assay_type": "functional"}, "[7]": {"tested_on": "Abelmoschus esculentus", "test": "Phytotoxicity in Abelmoschus esculentus assessed as seedling emergence at 0.99 kg a.i/ha treated to soil after 7 weeks (reference value: 95 +/- 0.05 %)", "assay_type": "organism-based", "conditions": "in vivo, other, 1176 h"}, "[8]": {"tested_on": "Talinum fruticosum", "test": "Herbicidal activity against Talinum fruticosum in Abelmoschus esculentus plots assessed as weed cover at 0.99 kg a.i/ha after 2 weeks (reference value: 63.5 +/- 0.29 %)", "assay_type": "functional"}, "[9]": {"tested_on": "Corchorus olitorius", "test": "Phytotoxicity in Corchorus olitorius assessed as root length at 0.33 kg a.i/ha applied as solution after 7 weeks (reference value: 14.3 +/- 1.06 mm)", "assay_type": "organism-based", "conditions": "in vivo, other, 1176 h"}, "[10]": {"tested_on": "Ageratum conyzoides", "test": "Herbicidal activity against Ageratum conyzoides in Abelmoschus esculentus plots assessed as weed recovery at 0.33 kg a.i/ha after 2 weeks (reference value: 60.1 +/- 0.46 %)", "assay_type": "functional"}, "[11]": {"tested_on": "Corchorus olitorius", "test": "Phytotoxicity in Corchorus olitorius assessed as crop seedling injury at 1.32 kg a.i/ha after 2 weeks relative to untreated control", "assay_type": "organism-based", "conditions": "in vivo, 336 h"}, "[12]": {"tested_on": "Euphorbia heterophylla", "test": "Herbicidal activity against Euphorbia heterophylla in Abelmoschus esculentus plots assessed as major weed growth at 1.32 kg a.i/ha after 2 weeks", "assay_type": "functional"}, "[13]": {"tested_on": "Ageratum conyzoides", "test": "Herbicidal activity against Ageratum conyzoides in Corchorus olitorius plots assessed as weed cover at 1.32 kg a.i/ha after 7 weeks (reference value: 1.7 +/- 0.56 %)", "assay_type": "functional"}, "[14]": {"tested_on": "Corchorus olitorius", "test": "Phytotoxicity in Corchorus olitorius assessed as crop seedling injury at 0.99 kg a.i/ha after 2 weeks relative to untreated control", "assay_type": "organism-based", "conditions": "in vivo, 336 h"}, "[15]": {"tested_on": "Synedrella nodiflora", "test": "Herbicidal activity against Synedrella nodiflora form in Abelmoschus esculentus plots assessed as minor weed growth at 0.66 kg a.i/ha after 2 weeks", "assay_type": "functional"}, "[16]": {"tested_on": "Calopogonium mucunoides", "test": "Herbicidal activity against Calopogonium mucunoides in Corchorus olitorius plots assessed as weed cover at 0.33 kg a.i/ha after 7 weeks (reference value: 1.7 +/- 0.56 %)", "assay_type": "functional"}, "[17]": {"tested_on": "Abelmoschus esculentus", "test": "Phytotoxicity in Abelmoschus esculentus assessed as seed germination at 0.66 kg a.i/ha applied as solution after 7 weeks (reference value: 85.7 +/- 0.36 %)", "assay_type": "organism-based", "conditions": "in vivo, other, 1176 h"}, "[18]": {"tested_on": "Chromolaena odorata", "test": "Herbicidal activity against Chromolaena odorata in Corchorus olitorius plots assessed as weed cover at 1.32 kg a.i/ha after 4 weeks (reference value: 20.1+/- 0.57 %)", "assay_type": "functional"}, "[19]": {"tested_on": "Synedrella nodiflora", "test": "Herbicidal activity against Synedrella nodiflora in Abelmoschus esculentus plots assessed as weed cover at 1.32 kg a.i/ha after 4 weeks (reference value: 22.6 +/- 0.49 %)", "assay_type": "functional"}, "[20]": {"tested_on": "Abelmoschus esculentus", "test": "Phytotoxicity in Abelmoschus esculentus assessed as seedling injury at 0.99 kg a.i/ha applied as solution after 7 weeks relative to control", "assay_type": "organism-based", "conditions": "in vivo, other, 1176 h"}, "[21]": {"tested_on": "Calopogonium mucunoides", "test": "Herbicidal activity against Calopogonium mucunoides in Corchorus olitorius plots assessed as weed recovery at 0.99 kg a.i/ha after 2 weeks (reference value: 78.3 +/- 0.74 %)", "assay_type": "functional"}, "[22]": {"tested_on": "Abelmoschus esculentus", "test": "Phytotoxicity in Abelmoschus esculentus assessed as seedling emergence at 0.66 kg a.i/ha treated to soil after 7 weeks (reference value: 95 +/- 0.05 %)", "assay_type": "organism-based", "conditions": "in vivo, other, 1176 h"}, "[23]": {"tested_on": "Ageratum conyzoides", "test": "Herbicidal activity against Ageratum conyzoides in Abelmoschus esculentus plots assessed as major weed growth at 0.33 kg a.i/ha after 2 weeks", "assay_type": "functional"}, "[24]": {"tested_on": "Euphorbia heterophylla", "test": "Herbicidal activity against Euphorbia heterophylla in Corchorus olitorius plots assessed as weed cover at 0.66 kg a.i/ha after 7 weeks (reference value: 1.7 +/- 0.56 %)", "assay_type": "functional"}, "[25]": {"tested_on": "Mimosa pudica", "test": "Herbicidal activity against Mimosa pudica in Abelmoschus esculentus plots assessed as weed recovery at 0.33 kg a.i/ha after 2 weeks (reference value: 60.1 +/- 0.46 %)", "assay_type": "functional"}, "[26]": {"tested_on": "Corchorus olitorius", "test": "Phytotoxicity in Corchorus olitorius assessed as root length at 0.66 kg a.i/ha treated to soil after 7 weeks (reference value: 16.9 +/- 0.09 mm)", "assay_type": "organism-based", "conditions": "in vivo, other, 1176 h"}, "[27]": {"tested_on": "Abelmoschus esculentus", "test": "Phytotoxicity in Abelmoschus esculentus assessed as seedling injury at 0.66 kg a.i/ha applied as solution after 7 weeks relative to control", "assay_type": "organism-based", "conditions": "in vivo, other, 1176 h"}, "[28]": {"tested_on": "Abelmoschus esculentus", "test": "Phytotoxicity in Abelmoschus esculentus assessed as shoot length at 0.99 kg a.i/ha applied as solution after 7 weeks (reference value: 28.7 +/- 0.34 mm)", "assay_type": "organism-based", "conditions": "in vivo, other, 1176 h"}, "[29]": {"tested_on": "Calopogonium mucunoides", "test": "Herbicidal activity against Calopogonium mucunoides in Corchorus olitorius plots assessed as minor weed growth at 0.66 kg a.i/ha after 2 weeks", "assay_type": "functional"}, "[30]": {"tested_on": "Synedrella nodiflora", "test": "Herbicidal activity against Synedrella nodiflora in Abelmoschus esculentus plots assessed as weed cover at 0.66 kg a.i/ha after 2 weeks (reference value: 63.5 +/- 0.29 %)", "assay_type": "functional"}, "[31]": {"tested_on": "Chromolaena odorata", "test": "Herbicidal activity against Chromolaena odorata in Corchorus olitorius plots assessed as weed recovery at 1.32 kg a.i/ha after 2 weeks (reference value: 78.3 +/- 0.74 %)", "assay_type": "functional"}, "[32]": {"tested_on": "Corchorus olitorius", "test": "Phytotoxicity in Corchorus olitorius assessed as shoot length at 0.33 kg a.i/ha applied as solution after 7 weeks (reference value: 22.9 +/- 0.8 mm)", "assay_type": "organism-based", "conditions": "in vivo, other, 1176 h"}, "[33]": {"tested_on": "Euphorbia heterophylla", "test": "Herbicidal activity against Euphorbia heterophylla in Corchorus olitorius plots assessed as weed cover at 0.66 kg a.i/ha after 2 weeks (reference value: 81.7 +/- 0.43 %)", "assay_type": "functional"}, "[34]": {"tested_on": "Synedrella nodiflora", "test": "Herbicidal activity against Synedrella nodiflora in Corchorus olitorius plots assessed as weed cover at 0.33 kg a.i/ha after 7 weeks (reference value: 1.7 +/- 0.56 %)", "assay_type": "functional"}, "[35]": {"tested_on": "Calopogonium mucunoides", "test": "Herbicidal activity against Calopogonium mucunoides in Corchorus olitorius plots assessed as weed cover at 0.66 kg a.i/ha after 7 weeks (reference value: 1.7 +/- 0.56 %)", "assay_type": "functional"}, "[36]": {"tested_on": "Calopogonium mucunoides", "test": "Herbicidal activity against Calopogonium mucunoides in Corchorus olitorius plots assessed as weed cover at 0.33 kg a.i/ha after 2 weeks (reference value: 81.7 +/- 0.43 %)", "assay_type": "functional"}, "[37]": {"tested_on": "Rottboellia cochinchinensis", "test": "Herbicidal activity against Rottboellia cochinchinensis in Corchorus olitorius plots assessed as weed recovery at 0.33 kg a.i/ha after 2 weeks (reference value: 78.3 +/- 0.74 %)", "assay_type": "functional"}}, "data": [{"compound": "CCC(CC)Nc1c([N+](=O)[O-])cc(C)c(C)c1[N+](=O)[O-]", "note": "[PENDIMETHALIN]", "values": [{"measurement": "Activity", "setting": "[1]", "value": 73.3, "unit": "%"}, {"measurement": "Activity", "setting": "[2]", "value": 53.8, "unit": "%"}, {"measurement": "Activity", "setting": "[3]", "value": 82.4, "unit": "%"}, {"measurement": "Activity", "setting": "[4]", "value": 51.7, "unit": "%"}, {"measurement": "Activity", "setting": "[5]", "value": 8.6, "unit": "mm"}, {"measurement": "Activity", "setting": "[6]", "value": 95, "unit": "%"}, {"measurement": "Activity", "setting": "[7]", "value": 85, "unit": "%"}, {"measurement": "Activity", "setting": "[8]", "value": 47.9, "unit": "%"}, {"measurement": "Activity", "setting": "[9]", "value": 3.1, "unit": "mm"}, {"measurement": "Activity", "setting": "[10]", "value": 39.2, "unit": "%"}, {"measurement": "Activity", "setting": "[11]", "value": 76.7, "unit": "%"}, {"measurement": "Activity", "setting": "[12]", "value": "31 /m2"}, {"measurement": "Activity", "setting": "[13]", "value": 95, "unit": "%"}, {"measurement": "Activity", "setting": "[14]", "value": 60, "unit": "%"}, {"measurement": "Activity", "setting": "[15]", "value": "1 /m2"}, {"measurement": "Activity", "setting": "[16]", "value": 100, "unit": "%"}, {"measurement": "Activity", "setting": "[17]", "value": 46, "unit": "%"}, {"measurement": "Activity", "setting": "[18]", "value": 33.3, "unit": "%"}, {"measurement": "Activity", "setting": "[19]", "value": 36.2, "unit": "%"}, {"measurement": "Activity", "setting": "[20]", "value": 47.9, "unit": "%"}, {"measurement": "Activity", "setting": "[21]", "value": 21.7, "unit": "%"}, {"measurement": "Activity", "setting": "[22]", "value": 82, "unit": "%"}, {"measurement": "Activity", "setting": "[23]", "value": "31 /m2"}, {"measurement": "Activity", "setting": "[24]", "value": 100, "unit": "%"}, {"measurement": "Activity", "setting": "[25]", "value": 39.2, "unit": "%"}, {"measurement": "Activity", "setting": "[26]", "value": 13.7, "unit": "mm"}, {"measurement": "Activity", "setting": "[27]", "value": 39.2, "unit": "%"}, {"measurement": "Activity", "setting": "[28]", "value": 14.7, "unit": "mm"}, {"measurement": "Activity", "setting": "[29]", "value": "1 /m2"}, {"measurement": "Activity", "setting": "[30]", "value": 50.8, "unit": "%"}, {"measurement": "Activity", "setting": "[31]", "value": 13.3, "unit": "%"}, {"measurement": "Activity", "setting": "[32]", "value": 7, "unit": "mm"}, {"measurement": "Activity", "setting": "[33]", "value": 51.7, "unit": "%"}, {"measurement": "Activity", "setting": "[34]", "value": 100, "unit": "%"}, {"measurement": "Activity", "setting": "[35]", "value": 100, "unit": "%"}, {"measurement": "Activity", "setting": "[36]", "value": 63.3, "unit": "%"}, {"measurement": "Activity", "setting": "[37]", "value": 31.7, "unit": "%"}]}]}
